Article PMC9549500, “Inhibition of TRPC4 channel activity in colonic myocytes by tricyclic antidepressants disrupts colonic motility causing constipation” (Journal of Cellular and Molecular Medicine, 2022)

Biological target: T1, TRPC4 (Mus musculus, UniProt Q9QUQ5)
T1 construct: native channel in murine sigmoid colonic myocytes
T1 sequence (Q9QUQ5 1-974): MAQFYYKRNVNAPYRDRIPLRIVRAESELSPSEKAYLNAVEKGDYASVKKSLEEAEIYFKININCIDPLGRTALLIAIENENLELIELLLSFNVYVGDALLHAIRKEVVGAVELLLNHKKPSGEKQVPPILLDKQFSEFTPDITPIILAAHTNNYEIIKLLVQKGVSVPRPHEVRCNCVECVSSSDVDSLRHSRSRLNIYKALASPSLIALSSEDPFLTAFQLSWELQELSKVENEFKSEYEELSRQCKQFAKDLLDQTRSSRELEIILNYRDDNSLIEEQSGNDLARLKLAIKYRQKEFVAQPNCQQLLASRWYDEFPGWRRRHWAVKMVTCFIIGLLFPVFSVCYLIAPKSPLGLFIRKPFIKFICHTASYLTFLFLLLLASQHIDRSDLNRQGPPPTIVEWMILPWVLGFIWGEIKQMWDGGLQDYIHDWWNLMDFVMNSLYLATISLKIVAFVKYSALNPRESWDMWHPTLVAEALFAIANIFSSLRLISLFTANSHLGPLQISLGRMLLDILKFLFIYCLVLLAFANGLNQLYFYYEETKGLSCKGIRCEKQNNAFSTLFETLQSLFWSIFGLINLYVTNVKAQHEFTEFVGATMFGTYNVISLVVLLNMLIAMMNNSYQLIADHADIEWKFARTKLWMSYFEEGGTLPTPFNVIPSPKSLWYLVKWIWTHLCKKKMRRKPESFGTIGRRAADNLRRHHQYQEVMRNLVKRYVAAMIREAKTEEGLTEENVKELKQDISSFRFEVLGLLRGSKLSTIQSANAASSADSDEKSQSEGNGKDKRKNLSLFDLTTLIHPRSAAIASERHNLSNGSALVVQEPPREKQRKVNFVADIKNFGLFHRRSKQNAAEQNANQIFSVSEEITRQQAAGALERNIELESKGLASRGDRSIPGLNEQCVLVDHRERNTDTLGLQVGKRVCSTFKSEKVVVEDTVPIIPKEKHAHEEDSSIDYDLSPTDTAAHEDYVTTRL
Assay: whole-cell patch clamp of CCh-evoked mIcat in murine colonic myocytes, […] Pico145; current absent in TRPC4-deficient mice
Format: cell-based

## Cn1c(=O)n(CCCO)c(=O)c2c1nc(Oc1cccc(OC(F)(F)F)c1)n2Cc1ccc(Cl)cc1 [Pico145]
  whole-cell patch clamp of CCh-evoked mIcat in murine colonic myocytes, 100 nM Pi: The selective and potent antagonist of TRPC4, Pico145, completely blocked the CCh‐evoked current.
